Common to all, as to format: cell-based
The test system of one assay is C. deneoformans (JEC21). Briefly: MIC dose-response assay in YPD. The note with it: Cryptococcus deneoformans. On the procedure:
Fig 4 4456dh inhibits the growth of Candida and Cryptococcus species. Two-fold dose response assays were performed against (A) C. albicans at 42°C and C. auris at 39°C, (B) C. glabrata at 42°C, and (C) C. neoformans, C. deneoformans, and C. gattii at 37°C. 4456dh was administered at the concentrations indicated. Cultures were grown in YPD at the listed temperatures for 48 hours for Candida species and 72 hours for Cryptococcus species. Experimental temperatures reflect the temperatures at which the fungi experience heat stress. Left: relative growth of treated samples was calculated by averaging technical triplicates and normalizing the OD600 of each treated well to the average OD600 of the untreated WT controls, after the absorbance due to the compound was subtracted. The MIC80 values, calculated based on the OD600 values, are indicated in the white text on each heat map. Right: representative spot assays show the ability of cells to grow after exposure to 4456dh and indicate fungicidal activity of 4456dh. […]
(§1) 124 technical replicates. Growth, as determined by a reading of absorbance at 600 nm, was
(§2) 125 normalized to untreated controls and was corrected for the absorbance of 4456dh in the YPD […]
(§3) 129 overnight cultures was quantified by measuring the OD600 and corrected for the background
130 absorbance of the medium. Antifungal potency for 4456dh was assessed by minimum inhibitory […]
137 replicates. Growth, as determined by a reading of absorbance at 600 nm, was normalized to
138 untreated controls and was corrected for the absorbance of 4456dh in the YPD medium. […]
139 minimum inhibitory concentration causing 80% growth reduction, or MIC80, was determined based […]
157 Optical density (OD600) was determined with an Infinite PRO plate reader ( Tecan). […]

Another assay relates to C. auris. Briefly: Fungicidal spot assay on compound-free YPD plates. The following applies: 30°C and 39°C exposure. On the procedure: (§4) We tested the effects of 4456dh on live cells by determining the minimal inhibitory concentration causing 80% growth reduction (MIC80). Wild-type (WT) C. albicans and C. auris cells were incubated with 4456dh in yeast-peptone-dextrose (YPD) medium at 42°C and 39°C, respectively (Fig. 4A). […] 4456dh inhibited the growth of C. auris with an MIC80 of 7 mM at 39°C (Fig. 4A). The MIC80 increased at 30°C to greater than 13 mM (Fig. S7A).
(§5) Fig 4 4456dh inhibits the growth of Candida and Cryptococcus species. Two-fold dose response assays were performed against (A) C. albicans at 42°C and C. auris at 39°C, (B) C. glabrata at 42°C, and (C) C. neoformans, C. deneoformans, and C. gattii at 37°C. 4456dh was administered at the concentrations indicated. […] Left: relative growth of treated samples was calculated by averaging technical triplicates and normalizing the OD600 of each treated well to the average OD600 of the untreated WT controls, after the absorbance due to the compound was subtracted. The MIC80 values, calculated based on the OD600 values, are indicated in the white text on each heat map. […]
as §1, §2, §3
(§6) 130 absorbance of the medium. […]

The next assay relates to C. albicans. Briefly: Fungicidal spot assay on compound-free YPD plates. The following applies: 42°C exposure, then compound-free YPD plates. On the procedure:
as §4, §5, §1, §2, §3, §6

Results on 1 molecule are retold here after publication PMC12505902, “Inhibitors of trehalose-6-phosphate synthase activity in fungal pathogens compromise thermal tolerance pathways” (mBio, 2025).

SMILES strings stand for the structures. Read-outs that look alike come from different tables or passages of the source.

For `Cn1cc(-c2csc(NC(=O)Cc3ccccn3)n2)cn1` [Compound 4456dh], the MIC80 with C. deneoformans (JEC21) is more than 13000 µM; with C. deneoformans (JEC21) (37°C, YPD, 72 hours, read-out: MIC80), 3000 µM; in the assay with C. deneoformans (JEC21) (Supplemental Table 5, This publication, read-out: MIC80) it was 1190 µg/mL. Besides, the fungicidal activity result in the assay with C. auris was “fungicidal activity of 4456dh on C. auris was also detected”; with C. albicans, “temperature-dependent fungicidal activity”.
